{
  "source": "patent US8735623B2",
  "about": "“Process for preparing creatine amides” (priority 2009, dated 2014)",
  "key": {"[1]": {"conditions": "in vivo; cited from earlier work"}, "[2]": {"test_system": "rat model of focal ischemia", "conditions": "score 18 max, 3 min", "description": "Cerebral ischemia was induced by the method mentioned above. A solution of amides of creatine or saline was administered intravenous. […] Testing the animals was carried out before ischemia, on a second and third days after ischemia-reperfusion at a fixed time for exclusion of behavioral changes by means of circadian rhythm. Spontaneous activity, symmetrical limb movement, climbing onto vertical reticulated wall, body proprioreception, touching to vibriss were assessed. A maximum point by assigned score was 18 (lack of neurological deficit), minimum—3 (severe neurological deficit)."}, "[3]": {"conditions": "37° C.", "description": "Stability of amides of creatine in human plasma was assessed by relative change in concentration of amides of creatine in plasma. 1 mL of plasma was mixed with 0.2 mL of amides of creatine aqueous solution with concentration 5 mg/mL, a mixture was kept at a temperature of 37° C., aliquot of volume 0.2 mL was drawn in fixed time ranges, mixed with 0.02 mL of trifluoroacetic acid 10% solution, a precipitate was centrifuged at […] for 20 min. A concentration of amides of creatine in supernatant was determined by HPLC method (Table 4)."}, "[4]": {"assay": "Stability in artificial gastric secretion (HPLC)", "conditions": "37° C.", "description": "10 mg of amides of creatine was dissolved in 20 mL of artificial gastric secretion for study of amides of creatine stability, solution aliquot was place into vial for chromatograph. Vial with solution was place into chromatograph autosampler at 37° C. Initial concentration of amides of creatine and its relative change in gastric secretion were determined by HPLC at indicated temperature (Table 3)."}, "[5]": {"test_system": "rat model of focal ischemia", "conditions": "30 min ischemia, 48 hour reperfusion, male Wistar rat", "description": "Research of the neuroprotective action of amides of creatine was carried out in a rat model of focal ischemia (male, Wistar, 12÷14 weeks, 220÷240 g). Anesthesia was performed by sodium thiopental 60 mg/kg. A solution of amides of creatine in saline was administered intravenous to the first group of animals 45 min before ischemia, saline was administered to a control group, a solution of amides of creatine in saline was administered intragastric per os by an enteral tube a day before ischemia to the second group of animals 3 times per day, saline was administered to a control group.\nStandard time of ischemia constituted 30 min, standard time of reperfusion constituted 48 hour. The animals were sacrificed, brain slices with thickness of 2 mm were produced for assessing a brain damage volume. The damage area was determined by staining with […] followed by data acquisition and analysis of stained slice digital images. A brain damage coefficient, i.e. a relation of damage area to the slice surface was calculated (Table 1)."}, "[6]": {"conditions": "20-30 g per day for a few days; cited from earlier work"}, "[7]": {"conditions": "i./v., 150 mg/kg, 45 min before ischemia"}, "[8]": {"conditions": "per os, 3 × 150 mg/kg, a day before ischemia"}},
  "note": "Read-outs that look alike come from different tables or passages of the source.",
  "data": [
    {"smiles": "CN(CC(=O)O)C(=N)N", "note": "[creatine, Creatine]", "values": [
      {"measurement": "Extent of absorbtion from gastro-intestinal tract", "setting": "[1]", "result": "1 to 14", "unit": "%"}
    ]},
    {"smiles": "CC(=O)O.CC(C)OC(=O)CNC(=O)CN(C)C(=N)N", "note": "[Agent 1, Creatinyl-Glycine iso-Propyl Ester Acetate]", "values": [
      {"measurement": "Neurological condition by Garcia score, 2nd day after ischemia", "setting": "[2]; 150 mg/kg intravenous", "result": "10 ± 2"},
      {"measurement": "Neurological condition by Garcia score, 3rd day after ischemia", "setting": "[2]; 150 mg/kg intravenous", "result": "15 ± 2"},
      {"measurement": "Neurological condition by Garcia score, 1 day before ischemia", "setting": "[2]; 150 mg/kg intravenous", "result": "18 ± 0"},
      {"measurement": "Stability in human plasma", "setting": "[3]; 0 hour", "result": 100, "unit": "%"},
      {"measurement": "Stability in human plasma", "setting": "[3]; 0.25 hour", "result": 100, "unit": "%"},
      {"measurement": "Stability in human plasma", "setting": "[3]; 0.5 hours", "result": 99, "unit": "%"},
      {"measurement": "Stability in human plasma", "setting": "[3]; 1 hour", "result": 91, "unit": "%"},
      {"measurement": "Stability in gastric secretion", "setting": "[4]; 0 hour", "result": 100, "unit": "%"},
      {"measurement": "Stability in gastric secretion", "setting": "[4]; 1 hour", "result": 100, "unit": "%"},
      {"measurement": "Stability in gastric secretion", "setting": "[4]; 3 hours", "result": 99, "unit": "%"},
      {"measurement": "Stability in gastric secretion", "setting": "[4]; 5 hours", "result": 97, "unit": "%"},
      {"measurement": "Brain damage coefficient", "setting": "[5]; [7]", "result": "11.2 ± 2.3", "unit": "%"},
      {"measurement": "Brain damage coefficient", "setting": "[5]; [8]", "result": "14.2 ± 3.0", "unit": "%"}
    ]},
    {"smiles": "CN(CC(=O)O)C(=N)N.O", "note": "[creatine monohydrate]", "values": [
      {"measurement": "Increasing of total creatine content in human skeletal muscles", "setting": "[6]", "result": "more than 20%"}
    ]},
    {"smiles": "CC(=O)O.CCOC(=O)CCCNC(=O)CN(C)C(=N)N", "note": "[Agent 6, Creatinyl-γ-Aminobutyric acid Ethyl Ester acetate]", "values": [
      {"measurement": "Neurological condition by Garcia score, 2nd day after ischemia", "setting": "[2]; 45 mg/kg intravenous", "result": "14 ± 0"},
      {"measurement": "Neurological condition by Garcia score, 3rd day after ischemia", "setting": "[2]; 45 mg/kg intravenous", "result": "16.0 ± 1.1"},
      {"measurement": "Neurological condition by Garcia score, 1 day before ischemia", "setting": "[2]; 45 mg/kg intravenous", "result": "18 ± 0"},
      {"measurement": "Stability in gastric secretion", "setting": "[4]; 0 hour", "result": 100, "unit": "%"},
      {"measurement": "Stability in gastric secretion", "setting": "[4]; 1 hour", "result": 100, "unit": "%"},
      {"measurement": "Stability in gastric secretion", "setting": "[4]; 3 hours", "result": 99, "unit": "%"},
      {"measurement": "Stability in gastric secretion", "setting": "[4]; 5 hours", "result": 99, "unit": "%"},
      {"measurement": "Brain damage coefficient", "setting": "[5]; i./v., 45 mg/kg, 45 min before ischemia", "result": "13.1 ± 1.0", "unit": "%"}
    ]},
    {"smiles": "CCNC(=O)C(Cc1ccccc1)NC(=O)CN(C)C(=N)N.Cl", "note": "(stereo not shown) [Agent 5, Creatinyl-Phenylalanine Ethylamide Hydrochloride]", "values": [
      {"measurement": "Neurological condition by Garcia score, 2nd day after ischemia", "setting": "[2]; 50 mg/kg intravenous", "result": "11 ± 1"},
      {"measurement": "Neurological condition by Garcia score, 3rd day after ischemia", "setting": "[2]; 50 mg/kg intravenous", "result": "14 ± 1"},
      {"measurement": "Neurological condition by Garcia score, 1 day before ischemia", "setting": "[2]; 50 mg/kg intravenous", "result": "18 ± 0"},
      {"measurement": "Stability in human plasma", "setting": "[3]; 0 hour", "result": 100, "unit": "%"},
      {"measurement": "Stability in human plasma", "setting": "[3]; 0.25 hour", "result": 100, "unit": "%"},
      {"measurement": "Stability in human plasma", "setting": "[3]; 0.5 hours", "result": 97, "unit": "%"},
      {"measurement": "Stability in human plasma", "setting": "[3]; 1 hour", "result": 87, "unit": "%"},
      {"measurement": "Stability in gastric secretion", "setting": "[4]; 0 hour", "result": 100, "unit": "%"},
      {"measurement": "Stability in gastric secretion", "setting": "[4]; 1 hour", "result": 100, "unit": "%"},
      {"measurement": "Stability in gastric secretion", "setting": "[4]; 3 hours", "result": 98, "unit": "%"},
      {"measurement": "Stability in gastric secretion", "setting": "[4]; 5 hours", "result": 99, "unit": "%"},
      {"measurement": "Brain damage coefficient", "setting": "[5]; i./v., 50 mg/kg, 45 min before ischemia", "result": "14.0 ± 1.1", "unit": "%"}
    ]},
    {"smiles": "CC(=O)O.CC(=O)O.CCOC(=O)[C@@H](N)CCCCNC(=O)CN(C)C(=N)N", "note": "[Agent 4, N^ε-Creatinyl-Lysine Ethyl Ester Diacetate]", "values": [
      {"measurement": "Neurological condition by Garcia score, 2nd day after ischemia", "setting": "[2]; 100 mg/kg intravenous", "result": "14 ± 1"},
      {"measurement": "Neurological condition by Garcia score, 3rd day after ischemia", "setting": "[2]; 100 mg/kg intravenous", "result": "17 ± 2"},
      {"measurement": "Neurological condition by Garcia score, 1 day before ischemia", "setting": "[2]; 100 mg/kg intravenous", "result": "18 ± 0"},
      {"measurement": "Stability in human plasma", "setting": "[3]; 0 hour", "result": 100, "unit": "%"},
      {"measurement": "Stability in human plasma", "setting": "[3]; 0.25 hour", "result": 100, "unit": "%"},
      {"measurement": "Stability in human plasma", "setting": "[3]; 0.5 hours", "result": 100, "unit": "%"},
      {"measurement": "Stability in human plasma", "setting": "[3]; 1 hour", "result": 89, "unit": "%"},
      {"measurement": "Stability in gastric secretion", "setting": "[4]; 0 hour", "result": 100, "unit": "%"},
      {"measurement": "Stability in gastric secretion", "setting": "[4]; 1 hour", "result": 100, "unit": "%"},
      {"measurement": "Stability in gastric secretion", "setting": "[4]; 3 hours", "result": 98, "unit": "%"},
      {"measurement": "Stability in gastric secretion", "setting": "[4]; 5 hours", "result": 97, "unit": "%"},
      {"measurement": "Brain damage coefficient", "setting": "[5]; i./v., 100 mg/kg, 45 min before ischemia", "result": "13.3 ± 3.2", "unit": "%"},
      {"measurement": "Brain damage coefficient", "setting": "[5]; per os, 3 × 100 mg/kg, a day before ischemia", "result": "15.2 ± 2.9", "unit": "%"}
    ]},
    {"smiles": "CC(=O)O.CCOC(=O)CNC(=O)CNC(=O)CN(C)C(=N)N", "note": "[Agent 2, Creatinyl-Glycyl-Glycine Ethyl Ester Acetate]", "values": [
      {"measurement": "Stability in human plasma", "setting": "[3]; 0 hour", "result": 100, "unit": "%"},
      {"measurement": "Stability in human plasma", "setting": "[3]; 0.25 hour", "result": 100, "unit": "%"},
      {"measurement": "Stability in human plasma", "setting": "[3]; 0.5 hours", "result": 97, "unit": "%"},
      {"measurement": "Stability in human plasma", "setting": "[3]; 1 hour", "result": 90, "unit": "%"},
      {"measurement": "Stability in gastric secretion", "setting": "[4]; 0 hour", "result": 100, "unit": "%"},
      {"measurement": "Stability in gastric secretion", "setting": "[4]; 1 hour", "result": 100, "unit": "%"},
      {"measurement": "Stability in gastric secretion", "setting": "[4]; 3 hours", "result": 98, "unit": "%"},
      {"measurement": "Stability in gastric secretion", "setting": "[4]; 5 hours", "result": 98, "unit": "%"},
      {"measurement": "Brain damage coefficient", "setting": "[5]; i./v., 200 mg/kg, 45 min before ischemia", "result": "12.1 ± 2.0", "unit": "%"}
    ]},
    {"smiles": "CCNC(=O)CNC(=O)CN(C)C(=N)N.O=C(O)C(O)C(O)C(=O)O", "note": "[Agent 3, Creatinyl-Glycine Ethylamide Tartrate]", "values": [
      {"measurement": "Neurological condition by Garcia score, 2nd day after ischemia", "setting": "[2]; 150 mg/kg intravenous", "result": "11 ± 2"},
      {"measurement": "Neurological condition by Garcia score, 3rd day after ischemia", "setting": "[2]; 150 mg/kg intravenous", "result": "16 ± 1"},
      {"measurement": "Neurological condition by Garcia score, 1 day before ischemia", "setting": "[2]; 150 mg/kg intravenous", "result": "18 ± 0"},
      {"measurement": "Stability in human plasma", "setting": "[3]; 0 hour", "result": 100, "unit": "%"},
      {"measurement": "Stability in human plasma", "setting": "[3]; 0.25 hour", "result": 100, "unit": "%"},
      {"measurement": "Stability in human plasma", "setting": "[3]; 0.5 hours", "result": 95, "unit": "%"},
      {"measurement": "Stability in human plasma", "setting": "[3]; 1 hour", "result": 90, "unit": "%"},
      {"measurement": "Stability in gastric secretion", "setting": "[4]; 0 hour", "result": 100, "unit": "%"},
      {"measurement": "Stability in gastric secretion", "setting": "[4]; 1 hour", "result": 100, "unit": "%"},
      {"measurement": "Stability in gastric secretion", "setting": "[4]; 3 hours", "result": 97, "unit": "%"},
      {"measurement": "Stability in gastric secretion", "setting": "[4]; 5 hours", "result": 98, "unit": "%"},
      {"measurement": "Brain damage coefficient", "setting": "[5]; [7]", "result": "12.0 ± 1.7", "unit": "%"},
      {"measurement": "Brain damage coefficient", "setting": "[5]; [8]", "result": "13.9 ± 3.3", "unit": "%"}
    ]}
  ]
}
